Measurements as given in patent US4252898A.
In brackets after ≈: the same amount, converted by molar mass. Read-outs that look alike come from different tables or passages of the source.

Assays:
[1] = test system: NRRL 11459; experiment: Antibiotic sensitivity of the producing strain (sensitivity discs on seeded ISP #2 agar); type: cell-based, Streptomyces flocculus; settings: 30° C., 14 days; further: key: +: sensitive (zones of inhibition); -: resistat (no zones of inhibition)
Experimental: (§1) The cell wall sugars are determined using a modification of the procedure of M. Lechevalier, "Chemical Methods as Criteria for the Separation of Actinomycetes Into Genera", workshop sponsored by the subcommittee on Actionomycetes of the American Society of Microbology, Dr. Thoman G. Pridham, Convenor, held at the Institute of Microbology, Rutgurs University, New Brunswick, N.J., 1971. The isomer of diaminopimelic acid is determined using the method of B. Becker Appl. Microbiol., 11 421 ([…]). Amino acid analysis is determined with washed cell wall fragments. Melanoid pigments are determined using ISP #6 (peptone-yeast extract iron agar) and ISP #7 (tyrosine agar). Inhibitors are tested by incorporating varing concentrations of inhibitors into ISP #2 agar plates and streaking the culture on the surface. Starch hydrolysis is determined by testing for the presence of starch with iodine on ISP #4 agar plates. Temperature range, NaCl tolerance, pH range, and antibiotic sensitivity are done using ISP #2 agar medium. The range of temperatures are: 25°, 28°, 30°, 34°, 37°, 40°, 45°, 50°, 55° C. NaCl tolerance is measured by adding NaCl to the agar to equal: 0, 1, 2, 3, 4, 5, 6, 8, 10, 12% and incubating at 30° C. for 7 days. Antibiotic sensitivity is determined using sensitivity discs padded onto seeded agar plates of ISP #2 medium and incubating at 30° C. for 14 days.

[2] = test system: NRRL 11459; experiment: Inhibitor sensitivity of the producing strain (inhibitor in ISP #2 agar); type: cell-based, Streptomyces flocculus
Experimental: as §1

[3] = test system: Bacteroides fragilis ssp. fragilis 1877; experiment: Susceptibility of anaerobic bacterial isolates, agar dilution; type: cell-based; settings: 27 hours incubation
[4] = test system: Bacteroides melaninogenicus 2736; experiment: as above; type: cell-based; settings: 27 hours incubation
[5] = test system: Group D Streptococcus; experiment: Disc-plate test; settings: read-out: Disc-Plate Zone Sizes
[6] = test system: P rettgeri PR-2; experiment: Disc-plate test; settings: read-out: Disc-Plate Zone Sizes
[7] = test system: S. pneumoniae I; experiment: Disc-plate test; settings: Streptococcus pneumoniae, read-out: Disc-Plate Zone Sizes
[8] = test system: Clostridium septicum 1128; experiment: Susceptibility of anaerobic bacterial isolates, agar dilution; type: cell-based; settings: 27 hours incubation
[9] = test system: Bacteroides fragilis ssp. fragilis 1936B; experiment: as above; type: cell-based; settings: 27 hours incubation
[10] = test system: Peptostreptococcus intermedium 1264; experiment: as above; type: cell-based; settings: 27 hours incubation
[11] = test system: Eubacterium aerofaciens 1235; experiment: as above; type: cell-based; settings: Collinsella aerofaciens, 27 hours incubation
[12] = test system: S. faecalis X-66; experiment: Agar-dilution test; settings: Enterococcus faecalis, X66
[13] = test system: Bacteroides fragilis spp. fragilis 111; experiment: Susceptibility of anaerobic bacterial isolates, agar dilution; type: cell-based; settings: 27 hours incubation
[14] = test system: S. typhosa SA-12; experiment: Disc-plate test; settings: read-out: Disc-Plate Zone Sizes
[15] = test system: K. pneumoniae KL-14; experiment: Disc-plate test; settings: Klebsiella pneumoniae, KL14, read-out: Disc-Plate Zone Sizes
[16] = test system: Fusobacterium symbiosum 1470; experiment: Susceptibility of anaerobic bacterial isolates, agar dilution; type: cell-based; settings: 27 hours incubation
[17] = test system: Bacteroides corrodens 1874; experiment: as above; type: cell-based; settings: Eikenella corrodens, 27 hours incubation
[18] = test system: S. pyogenes C203; experiment: Therapy in experimental mouse infections; settings: Streptococcus pyogenes
[19] = test system: S. aureus 3074; experiment: Agar-dilution test; settings: Staphylococcus aureus
[20] = test system: Clostridium perfringens 81; experiment: microbe, parasite or virus in culture; type: cell-based; settings: Clostridium perfringens, 81, 27 h
[21] = test system: E. coli Ec-14; experiment: Disc-plate test; settings: Escherichia coli, EC14, read-out: Disc-Plate Zone Sizes
[22] = test system: Peptococcus asaccharolyticus 1302; experiment: Susceptibility of anaerobic bacterial isolates, agar dilution; type: cell-based; settings: Peptoniphilus asaccharolyticus, 27 hours incubation
[23] = test system: Actinomyces israelii W855; experiment: as above; type: cell-based; settings: 27 hours incubation
[24] = test system: Bacteroides melaninogenicus 1856/28; experiment: as above; type: cell-based; settings: Prevotella intermedia, 27 hours incubation
[25] = test system: gram positive bacteria; experiment: Antibacterial activity in standard test procedures
[26] = test system: Bacteroides vulgatis 1211; experiment: Susceptibility of anaerobic bacterial isolates, agar dilution; type: cell-based; settings: 27 hours incubation
[27] = test system: Peptococcus prevoti 1281; experiment: as above; type: cell-based; settings: 27 hours incubation
[28] = test system: Bacteroides fragilis ssp. thetaiotaoimicron 1438; experiment: as above; type: cell-based; settings: 27 hours incubation
[29] = test system: Propionibacterium acnes 79; experiment: as above; type: cell-based; settings: Cutibacterium acnes, 27 hours incubation
[30] = test system: S. Aureus (3 strains); experiment: Disc-plate test; settings: Staphylococcus aureus, read-out: Disc-Plate Zone Sizes
[31] = test system: S. pyogenes C203; experiment: Disc-plate test; settings: Streptococcus pyogenes, C203, read-out: Disc-Plate Zone Sizes
[32] = test system: Peptostreptococcus anaerobius 1428; experiment: Susceptibility of anaerobic bacterial isolates, agar dilution; type: cell-based; settings: 27 hours incubation
[33] = test system: S. aureus 3.55; experiment: Agar-dilution test; settings: Staphylococcus aureus
[34] = test system: Fusobacterium necrophorum 6054A; experiment: Susceptibility of anaerobic bacterial isolates, agar dilution; type: cell-based; settings: 27 hours incubation
[35] = test system: S. aureus 3055; experiment: Therapy in experimental mouse infections; settings: Staphylococcus aureus, 3055, in Mus musculus
[36] = NRRL11459, NRRL 11459, ISP #2 agar plates, read-out: Inhibitor sensitivity, MIC

## CN[C@H](CC(C)C)C(=O)N[C@H]1C(=O)N[C@@H](CC(N)=O)C(=O)N[C@H]2C(=O)N[C@H]3C(=O)N[C@H](C(=O)N[C@H](C(=O)O)c4cc(O)cc(O)c4-c4cc3ccc4O)[C@H](O)c3ccc(c(Cl)c3)Oc3cc2cc(c3O[C@@H]2O[C@H](CO)[C@@H](O)[C@H](O)[C@H]2O[C@H]2C[C@](C)(N)[C@H](O)[C@H](C)O2)Oc2ccc(cc2Cl)[C@H]1O [Vancomycin]
[1]; 30 μg/disc
  Antibiotic sensitivity: +

## C[C@@H]1[C@H](O)[C@@H](C)/C=C/C=C/CC/C=C/C=C/C=C/C=C/C(O[C@H]2O[C@H](C)[C@@H](O)[C@H](N)[C@@H]2O)CC2O[C@](O)(CC(O)C(O)CCC(O)CC(O)CC(O)CC(=O)O[C@H]1C)CC(O)C2C(=O)O (stereo partly shown) [Nystatin]
[1]; 100 units/disc
  Antibiotic sensitivity: -

## CCC[C@@H]1C[C@@H](C(=O)N[C@@H]([C@H]2O[C@H](SC)[C@H](O)[C@@H](O)[C@H]2O)[C@@H](C)O)N(C)C1 [Lincomycin]
[1]; 2 μg/disc
  Antibiotic sensitivity: +

## CC[C@H]1OC(=O)[C@H](C)[C@@H](O[C@H]2C[C@@](C)(OC)[C@@H](O)[C@H](C)O2)[C@H](C)[C@@H](O[C@@H]2O[C@H](C)C[C@H](N(C)C)[C@H]2O)[C@](C)(O)C[C@@H](C)C(=O)[C@H](C)[C@@H](O)[C@]1(C)O [Erythromycin]
[1]; 15 μg/disc
  Antibiotic sensitivity: +

## [H]/N=C(/N)N[C@H]1[C@H](O)[C@@H](O)[C@H](O[C@@H]2O[C@@H](C)[C@](O)(C=O)[C@H]2O[C@@H]2O[C@@H](CO)[C@H](O)[C@@H](O)[C@@H]2NC)[C@@H](N/C(N)=N\[H])[C@@H]1O [Streptomycin]
[1]; 10 μg/disc
  Antibiotic sensitivity: +

## O.O.O.O=C([O-])[C@H]([O-])[C@@H]([O-])C(=O)[O-].O=C([O-])[C@H]([O-])[C@@H]([O-])C(=O)[O-].[K+].[K+].[Sb+3].[Sb+3] [Antimony Potassium tartrate]
[2]; NRRL 11459, ISP #2 agar plates
  Inhibitor sensitivity, MIC: 250 µg/mL

## CN(C)[C@@H]1C(O)=C(C(N)=O)C(=O)[C@@]2(O)C(O)=C3C(=O)c4c(O)cccc4[C@@](C)(O)[C@H]3C[C@@H]12 [Tetracycline]
[1]; 30 μg/disc
  Antibiotic sensitivity: +

## O=[Te]([O-])[O-].[K+].[K+] [Potassium Tellurite]
[2]; NRRL 11459, ISP #2 agar plates
  Inhibitor sensitivity, MIC: > 500 µg/mL

## O=[Se](O)O [Sodium Selenite]
[2]; [36]
  MIC: 25 µg/mL

## Polymixin B
[1]; 300 units/disc
  Antibiotic sensitivity: +

## CC(=O)[O-].[Tl+] [Thallium Acetate]
[2]
  Inhibitor sensitivity, MIC: < 10 µg/mL

## CC(=O)OCC1=C(C(=O)O)N2C(=O)[C@@H](NC(=O)Cc3cccs3)[C@H]2SC1 [Keflin]
[1]; 30 μg/disc
  Antibiotic sensitivity: -

## O=C([O-])CC(O)(CC(=O)[O-])C(=O)[O-].[Bi+3] [Bismuth Citrate]
[2]; NRRL 11459, ISP #2 agar plates
  Inhibitor sensitivity, MIC: > 500 µg/mL

## CN(C)c1ccc(C(=C2C=CC(=[N+](C)C)C=C2)c2ccc(N(C)C)cc2)cc1 [Crystal Violet]
[2]; [36]
  MIC: 1 µg/mL

## CCC1OC(=O)CC(O)C(C)C(OC2OC(C)C(OC3CCC(O)C(C)O3)C(N(C)C)C2O)C(CC=O)CC(C)C(=O)C=CC2(C)OC2C1C (stereo not shown)
[3]
  MIC: 16 µg/mL (≈ 22.5 µM)
[4]
  MIC: 32 µg/mL (≈ 45 µM)
[5]
  zone of inhibition at 100 µg/disc: 20 mm
[6]
  zone of inhibition at 100 µg/disc: 8 mm
[7]
  zone of inhibition at 100 µg/disc: 35 mm
[8]
  MIC: 2 µg/mL (≈ 2.81 µM)
[9]
  MIC: 32 µg/mL (≈ 45 µM)
[10]
  MIC: 16 µg/mL (≈ 22.5 µM)
[11]
  MIC: 2 µg/mL (≈ 2.81 µM)
[12]
  MIC: 4 µg/mL (≈ 5.62 µM)
[13]
  MIC: 64 µg/mL (≈ 89.9 µM)
[14]
  zone of inhibition at 100 µg/disc: 9.9 mm
[15]
  zone of inhibition at 100 µg/disc: 0 mm
[16]
  MIC: 4 µg/mL (≈ 5.62 µM)
[17]
  MIC: 32 µg/mL (≈ 45 µM)
[18]
  ED50: 4.65 mg/kg
[19]
  MIC: 2 µg/mL (≈ 2.81 µM)
[20]
  MIC: 2 µg/mL (≈ 2.81 µM)
[21]
  zone of inhibition at 100 µg/disc: 10.2 mm
[22]
  MIC: 2 µg/mL (≈ 2.81 µM)
[23]
  MIC: 4 µg/mL (≈ 5.62 µM)
[24]
  MIC: 64 µg/mL (≈ 89.9 µM)
[25]
  antibacterial activity: exhibit antibacterial activity, particularly against gram positive bacteria
[26]
  MIC: 8 µg/mL (≈ 11.2 µM)
[27]
  MIC: 32 µg/mL (≈ 45 µM)
[28]
  MIC: 8 µg/mL (≈ 11.2 µM)
[29]
  MIC: 2 µg/mL (≈ 2.81 µM)
[30]
  zone of inhibition at 100 µg/disc: 24 mm
[31]
  zone of inhibition at 100 µg/disc: 20 mm
[32]
  MIC: 2 µg/mL (≈ 2.81 µM)
[33]
  MIC: 1 µg/mL (≈ 1.4 µM)
[34]
  MIC: 16 µg/mL (≈ 22.5 µM)
[35]
  ED50: 5 mg/kg

## Cc1cc2nc3cc(C)c(N)cc3[n+](-c3ccccc3)c2cc1N.[Cl-] [Safranin]
[2]; NRRL 11459, ISP #2 agar plates
  Inhibitor sensitivity, MIC: 10 µg/mL

## [N-]=[N+]=[N-] [Sodium Azide]
[2]; NRRL11459, read-out: Inhibitor sensitivity, MIC
  MIC: 10 µg/mL
